Drawing on patent US20250034159A1, “INHIBITORS OF EPIDERMAL GROWTH FACTOR RECEPTOR” (ORIC Pharmaceuticals, Inc., priority 2021, published 2025), this text covers IC50 for 16 compounds.

One experiment deals with Ba/F3_EGFR WT cells. The experiment can be described thus: Biological Activity Assay D: BaF3 cell proliferation assay, EGFR wild-type (BaF3 WT). The experiment is classed as cell-based. Conditions: Ba/F3 EGFR, read-out: BaF3 WT IC50. As for the experimental part:
(§1) One frozen vial of cells should be thawed into one T25 flask in 10 mL media. Keep the flask upright in the incubator.
(§2) Method: One frozen vial of cells was thawed into one T25 flask in 10 mL media and the flask was kept upright in the incubator. Cells were split 1:10 every two to three days when cells reached confluency of around 1×10^6 cells/mL. Bravo protocol files were used with Greiner 384-well plates for all steps of compound preparation, cell plating and compound addition. […] 16 μL of DMSO were added (for compounds starting at 20 μM) or 28 μL DMSO (for compounds starting at 5 μM) to 96-well V-bottom polypropylene plate: wells 1A-1H (8 compounds/plate). […] 20 μL DMSO were added to the remainder of the wells (columns 2-12) in the 96-well V-bottom plate. A Bravo liquid handler was used to make 1:3 serial dilutions from columns 1 to 11 (12 remains as DMSO only) to prepare the DMSO dilution plate. 144 μL media were added to each well of a new 96-well V-bottom polypropylene plate to prepare the intermediate dilution plate. A Bravo or 96-head Integra liquid handler was used to add and mix 6 μL of test compound from the DMSO dilution plate to the intermediate dilution plate. (1:25 dilution). Cells were transferred from a flask into a 50 mL conical, vortex gently and the number of cells were counted, with a target cell number of about 1×10^6 cells per mL. The cells were diluted in culture medium in 50 mL conical or T25 flask, and the cell suspension was added to BRAVO reservoir and then use Bravo protocol to plate the appropriate number of cells shown below in 36 μl of medium per well as follows: Ba/F3-WT-EGFR 2000 cells per well of a 384 well plate; Ba/F3-LR/CS-EGFR 2000 cells per well of a 384 well plate; and Ba/F3-d19/CS-EGFR 1500 cells per well of a 384 well plate. An extra 10 mL of dead volume was utilized in each reservoir.
(§3) Using a Bravo liquid handler, 4 μl of test compound solution was added per well from the intermediate dilution plate to plated cells (1:10 dilution from the intermediate plate, final compound dilution 1:250 and final DMSO concentration per well is 0.4%). Using the 96 BRAVO Head, 25 μl were aspirated from the intermediate dilution plate and 4 μl each were dispensed into 4 wells (square pattern) in the 384-well plate. Any remaining test compound is dispensed into a secondary plate to prevent cross contamination of cells in the intermediate compound plate. After the compounds were added, the plate was shaken at 600 rpm gently for 60 see, and the plates were incubated in a tissue culture incubator, 37° C., 5% CO2, for ˜ 72 hours. After incubation, CTG 2.0 reagent was allowed to equilibrate to room temperature (˜3 hours) and cells to reach room temperature (˜10-15 minutes) and reagent was added to cells (40 μL/well) using a Bravo liquid handler. The plates were shaken to allow proper mixing (˜5 min) and let settle for 10 minutes and were read on Tecan plate reader using the appropriate luminescence method. Data from plate reader was transferred to an excel file and entered directly into Dotmatics using the protocols under EGFR Project/Cell Proliferation/named: “BaF3_EGFRwt_CP”, “BaF3_EGFR_d19/CS_CP”, “BaF3_EGFR_LR/CS_CP”. Curves were fit with a 4-parameter model and IC50s calculated by the Dotmatics software. DMSO wells were averaged to define the high control (100% growth). The average of the highest concentration of the positive control compound (afatinib) was used to define the 0% growth and used to lock the bottom of the curves. The tops of the curves were not fixed.

A further experiment has as its system BaF3_EGFR LR/CS cells. The experiment can be described thus: Biological Activity Assay D: BaF3 cell proliferation assay, EGFR L858R/C797S mutant (BaF3 LR/CS). The experiment is classed as cell-based. Conditions: Ba/F3 EGFR, read-out: BaF3 LR/CS IC50. The method, then:
as §1, §2, §3

In a further experiment the test system is BaF3_EGFR d19/CS cells. The experiment can be described thus: Biological Activity Assay D: BaF3 cell proliferation assay, EGFR exon 19 deletion/C797S (BaF3 d19/CS). It counts as cell-based. Conditions: Ba/F3 EGFR, read-out: BaF3 d19/CS IC50. As for the experimental part:
as §1, §2, §3

The target of experiment [1] is recombinant human EGFR exon 19 deletion/C797S double mutant protein (Homo sapiens (Human), UniProt P00533, C797S/DEL746-750). The experiment can be described thus: Biological Activity Assay C: biochemical assay against EGFR exon 19 deletion/C797S protein (EGFR d19/CS). As for the experimental part: In Row A of a 384-well polypropylene plate, was added 48 μL of DMSO. In wells A1 and A24, were added 12 μL of DMSO. […] To a well in Row A were added 12 μL of each 10 mM test compound stock (100% DMSO). […] The final intermediate dilution plate contained 4×16-point compound serial dilutions in assay buffer. The DMSO concentration was 10%. The intermediate compound dilution plate was transferred to the Bravo and the “5 uL dispense into ARP.pro” protocol was run. To the black low volume assay ready plates, were added 5 μL of 40 uM Phosphosens peptide sensor/4 mM ATP working solution to each well. […] To column 24, was added 10 μL of assay buffer. The final DMSO concentration was 2.5%. […] The plates were sealed with the TopSeal-A Plus plate seals. […] Set for 90 cycles with 120 second interval. […] The slope of each curve was constructed using Dotmatics in each well, and each IC50s was calculated using a 4-parameter fit model.

[2] abbreviates: Ba/F3_EGFR WT cells, ~72 hours, CellTiter-Glo.
[3] abbreviates: BaF3_EGFR LR/CS cells, ~72 hours, CellTiter-Glo.
Setting [4] is: BaF3_EGFR d19/CS cells, ~72 hours, CellTiter-Glo.

Where two headings read alike, the source gives them in different places. Some results are limits rather than exact numbers.

Sequence of recombinant human EGFR exon 19 deletion/C797S double mutant protein (P00533 other isoform, or with tags, fused parts or gaps C797S/del 1-668/del 746-750 limits assumed): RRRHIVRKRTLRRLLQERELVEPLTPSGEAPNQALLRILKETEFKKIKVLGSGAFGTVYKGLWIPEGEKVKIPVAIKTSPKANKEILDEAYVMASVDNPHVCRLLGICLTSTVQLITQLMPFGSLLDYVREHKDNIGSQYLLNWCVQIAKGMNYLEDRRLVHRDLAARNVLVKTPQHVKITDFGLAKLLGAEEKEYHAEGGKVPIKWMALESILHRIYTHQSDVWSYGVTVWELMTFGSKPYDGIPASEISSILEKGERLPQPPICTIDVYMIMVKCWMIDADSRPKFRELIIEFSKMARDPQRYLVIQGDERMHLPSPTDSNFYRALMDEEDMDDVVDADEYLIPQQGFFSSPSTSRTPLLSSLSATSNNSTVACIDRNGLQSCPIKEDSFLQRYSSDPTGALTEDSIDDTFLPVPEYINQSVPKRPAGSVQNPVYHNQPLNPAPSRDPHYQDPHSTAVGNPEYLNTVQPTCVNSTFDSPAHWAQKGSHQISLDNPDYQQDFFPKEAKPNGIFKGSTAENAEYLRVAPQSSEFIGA

For `O=S1(=O)CC(n2cc(-c3ncnc4oc(C5=CCN(S(=O)(=O)C6CC6)CC5)cc34)c(-c3ccc(F)cc3)n2)C1` [Example 177, 3-[4-{6-[1-(cyclopropanesulfonyl)-1,2,3,6-tetrahydropyridin-4-yl]furo[2,3-d]pyrimidin-4-yl}-3-(4-fluorophenyl)-1H-pyrazol-1-yl]-1λ6-thietane-1,1-dione], the IC50 in the experiment with Ba/F3_EGFR WT cells (setting [2]) amounted to 1590 nM; in the experiment on BaF3_EGFR LR/CS cells (setting [3]) it was 42 nM; in the experiment on BaF3_EGFR d19/CS cells (setting [4]), 56.4 nM.
As to `CS(=O)(=O)[C@H]1C[C@@H](n2cc(-c3ncnc4oc(-c5ccccc5)cc34)c(-c3ccc(F)cc3)n2)C1` [Example 163, 4-{3-(4-fluorophenyl)-1-[(1s,3s)-3-(methanesulfonyl)cyclobutyl]-1H-pyrazol-4-yl}-6-phenylfuro[2,3-d]pyrimidine], the IC50 turned out to be 0.27 nM in experiment [1], 619 nM in the experiment on Ba/F3_EGFR WT cells (setting [2]), 10.1 nM in the experiment with BaF3_EGFR LR/CS cells (setting [3]) and 22.1 nM with BaF3_EGFR d19/CS cells (setting [4]).
The corresponding values for `C[C@H]1C[C@@H](n2cc(-c3ncnc4oc(-c5ccccc5)cc34)c(-c3ccc(F)cc3)n2)CN1S(C)(=O)=O` [Example 198, 4-{3-(4-fluorophenyl)-1-[(3R,5S)-1-(methanesulfonyl)-5-methylpyrrolidin-3-yl]-1H-pyrazol-4-yl}-6-phenylfuro[2,3-d]pyrimidine] are 0.72 nM, 703 nM, 17.9 nM and 51.9 nM.
As for `Cc1nn(C)cc1-c1cc2c(-c3cn(C4CS(=O)(=O)C4)nc3-c3ccc(F)cc3)ncnc2o1` [Example 242, 3-{4-[6-(1,3-dimethyl-1H-pyrazol-4-yl)furo[2,3-d]pyrimidin-4-yl]-3-(4-fluorophenyl)-1H-pyrazol-1-yl}-16-thietane-1,1-dione], the IC50 turned out to be 0.18 nM in experiment [1], 533 nM in the experiment with Ba/F3_EGFR WT cells (setting [2]), 8.34 nM with BaF3_EGFR LR/CS cells (setting [3]) and 10.8 nM in the experiment with BaF3_EGFR d19/CS cells (setting [4]).
For `Cn1cnc(-c2cc3c(-c4cn(CC(C)(C)O)nc4-c4ccc(F)cc4)ncnc3o2)c1` [Example 254, 1-{3-(4-fluorophenyl)-4-[6-(1-methyl-1H-imidazol-4-yl)furo[2,3-d]pyrimidin-4-yl]-1H-pyrazol-1-yl}-2-methylpropan-2-ol] the same measures were 0.11 nM, 442 nM, 3.05 nM and 5.01 nM.
Take `CC1(C)C[C@H](Cn2cc(-c3ncnc4oc(-c5ccccc5)cc34)c(-c3ccc(F)cc3)n2)O1` (single isomer, unassigned) [Example 221]: the IC50 in experiment [1] was found to be 0.33 nM; in the experiment on Ba/F3_EGFR WT cells (setting [2]), 710 nM; with BaF3_EGFR LR/CS cells (setting [3]) it was 20.7 nM; in the experiment with BaF3_EGFR d19/CS cells (setting [4]), 51.8 nM.
For `Fc1ccc(-c2nn([C@@H]3CCOC[C@@H]3F)cc2-c2ncnc3oc(-c4ccccc4)cc23)cc1` (single isomer, unassigned) [Example 211] the same measures were 0.35 nM, 886 nM, 18.3 nM and 20.1 nM.
Turning to `O=S1(=O)CC(n2cc(-c3ncnc4oc(-c5cncnc5)cc34)c(-c3ccc(F)cc3)n2)C1` [Example 175, 3-{3-(4-fluorophenyl)-4-[6-(pyrimidin-5-yl)furo[2,3-d]pyrimidin-4-yl]-1H-pyrazol-1-yl}-1λ6-thietane-1,1-dione], the IC50 in experiment [1] is 6.08 nM; with Ba/F3_EGFR WT cells (setting [2]) it was 11700 nM; in the experiment with BaF3_EGFR LR/CS cells (setting [3]) it was 472 nM; in the experiment with BaF3_EGFR d19/CS cells (setting [4]), 248 nM.
In the case of `Fc1ccc(-c2nn(CCOC(F)(F)F)cc2-c2ncnc3oc(-c4ccccc4)cc23)cc1` [Example 144, 4-{3-(4-Fluorophenyl)-1-[2-(trifluoromethoxy)ethyl]-1H-pyrazol-4-yl}-6-phenylfuro[2,3-d]pyrimidine], the IC50 with Ba/F3_EGFR WT cells (setting [2]) is 1610 nM; with BaF3_EGFR LR/CS cells (setting [3]), 33.6 nM; in the experiment with BaF3_EGFR d19/CS cells (setting [4]) it was 89.6 nM.
For `OCCCc1nc(-c2ccnc3[nH]c(-c4ccccc4)cc23)n(-c2ccc(F)cc2)n1` [Example 2, 3-[1-(4-Fluorophenyl)-5-(2-phenyl-1H-pyrrolo[2,3-b]pyridin-4-yl)-1H-1,2,4-triazol-3-yl]propan-1-ol] the same measures were 724 nM, 89.5 nM and 104 nM.
`[2H]C([2H])([2H])n1cc(-c2ncnc3oc(-c4ccccc4)cc23)c(-c2ccc(F)cc2)n1` [Example 48, 4-[3-(4-Fluorophenyl)-1-(2H3)methyl-1H-pyrazol-4-yl]-6-phenylfuro[2,3-d]pyrimidine]: the figures for the IC50 in the experiment with Ba/F3_EGFR WT cells (72 h), in the experiment with BaF3_EGFR LR/CS cells (72 h) and in the experiment on BaF3_EGFR d19/CS cells (72 h) were 2210 nM, 60.4 nM and 47.9 nM, respectively.
In the case of `Fc1ccc(-c2nn(CCC(F)F)cc2-c2ccnc3oc(-c4ccccc4)cc23)cc1` [Example 157, 4-[1-(3,3-difluoropropyl)-3-(4-fluorophenyl)-1H-pyrazol-4-yl]-2-phenylfuro[2,3-b]pyridine], the IC50 was determined as 1590 nM in the experiment with Ba/F3_EGFR WT cells (setting [2]), 15.2 nM in the experiment on BaF3_EGFR LR/CS cells (setting [3]) and 40.8 nM in the experiment with BaF3_EGFR d19/CS cells (setting [4]).
For `OCCCn1cc(-c2ccnc3cc(-c4ccccc4)[nH]c23)c(-c2ccc(F)cc2)n1` [Example 7, 3-[3-(4-Fluorophenyl)-4-(2-phenyl-1H-pyrrolo[3,2-b]pyridin-7-yl)-1H-pyrazol-1-yl]propan-1-ol] the same measures were 4710 nM, 694 nM and 508 nM.
As to `O=S1(=O)CCC(n2cc(-c3ncnc4oc(-c5ccccc5)cc34)c(-c3ccc(F)cc3)n2)CC1` [Example 83, 4-[3-(4-fluorophenyl)-4-(6-phenylfuro[2,3-d]pyrimidin-4-yl)-1H-pyrazol-1-yl]-1λ6-thiane-1,1-dione], the IC50 with Ba/F3_EGFR WT cells (setting [2]) is more than 20000 nM; in the experiment on BaF3_EGFR LR/CS cells (setting [3]) it was 529 nM; with BaF3_EGFR d19/CS cells (setting [4]) it was 640 nM.
Consider `Fc1ccc(-n2nccc2-c2ccnc3[nH]c(-c4ccccc4)cc23)cc1` [Example 1, 4-[1-(4-fluorophenyl)-1H-pyrazol-5-yl]-2-phenyl-1H-pyrrolo[2,3-b]pyridine], for which the IC50 in the experiment with Ba/F3_EGFR WT cells (setting [2]) was found to be 2570 nM; with BaF3_EGFR LR/CS cells (setting [3]), 349 nM; in the experiment with BaF3_EGFR d19/CS cells (setting [4]) it was 211 nM.
As to `Cn1cc(-c2ncnc3oc(-c4ccccc4)cc23)c(-c2ccc(F)cc2)n1` [Example 63, 4-[3-(4-Fluorophenyl)-1-methyl-1H-pyrazol-4-yl]-6-phenylfuro[2,3-d]pyrimidine], the results for the IC50 with Ba/F3_EGFR WT cells (72 h), in the experiment on BaF3_EGFR LR/CS cells (72 h) and in the experiment with BaF3_EGFR d19/CS cells (72 h) were 1270 nM, 35.4 nM and 48.5 nM, respectively.
